Laboratory results published in paper PMC8476755 (Frontiers in Chemistry, 2021).
Where two headings read alike, the source gives them in different places.

Molecular target: T1, BGT1 Q299L (Homo sapiens, UniProt P48065, Q299L)
T1 construct: expressed in transfected cells; host or cells: tsA201 (transformed HEK293), transient
T1 sequence (P48065 1-614 Q299L): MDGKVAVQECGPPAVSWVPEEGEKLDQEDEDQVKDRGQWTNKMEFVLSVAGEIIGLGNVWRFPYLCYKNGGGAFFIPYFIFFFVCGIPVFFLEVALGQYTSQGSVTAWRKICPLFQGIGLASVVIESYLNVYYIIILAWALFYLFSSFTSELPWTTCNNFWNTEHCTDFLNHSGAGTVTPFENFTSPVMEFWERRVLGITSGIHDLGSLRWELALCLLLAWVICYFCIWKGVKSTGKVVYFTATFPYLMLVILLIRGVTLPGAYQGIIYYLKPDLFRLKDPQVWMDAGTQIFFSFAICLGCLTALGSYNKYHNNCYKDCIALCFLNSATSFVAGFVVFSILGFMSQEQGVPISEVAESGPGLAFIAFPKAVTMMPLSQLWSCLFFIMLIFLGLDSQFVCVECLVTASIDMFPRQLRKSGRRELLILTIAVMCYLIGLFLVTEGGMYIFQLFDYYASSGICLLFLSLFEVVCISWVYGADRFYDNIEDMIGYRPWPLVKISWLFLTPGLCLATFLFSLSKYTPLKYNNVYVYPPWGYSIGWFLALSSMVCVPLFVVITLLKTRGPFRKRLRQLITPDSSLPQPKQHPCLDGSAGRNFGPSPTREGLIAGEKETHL
Assay: [3H]GABA uptake assay, transient expression in tsA201 cells
Assay type: cell-based
Conditions: for IC50: BGT1 Q299L, tsA201 cells
From the text: The residue Q299 in human BGT1 corresponds to leucine in all other GATs (human, rat, mouse), while E52 corresponds to tyrosine in GAT1 (human, rat, mouse) but is conserved among GAT2, GAT3 and BGT1 (human, rat, mouse) (Figure 6A) ([Kickinger et al., 2019]).
FIGURE 6 (A) Pocket alignment of the orthosteric site of the four GAT subtypes colored according to the default ClustalX color scheme ([Larkin et al., 2007]). The pocket was defined as all corresponding GAT residues (15 in total) that are within a distance of 4.5 Å of the co-crystallized ligand leucine in the homologous LeuT crystal structure (PDB ID 2A65) ([Yamashita et al., 2005]) according to the alignment by Kickinger et al. ([Kickinger et al., 2019]). The mutated residues in BGT1 and the corresponding residues in GAT1-3 are indicated by a red box. The numbering of all residues within the orthosteric pocket can be found in the Supplementary Table S1.
The tsA201 cell line (a transformed HEK293 cell line), the Flp-In CHO cell lines stably expressing human (h) GATs and the HEK293 cell line stably expressing human α1β2γ2 GABAA receptors have been described previously and were cultured accordingly ([Al-Khawaja et al., 2014]; [Falk-Petersen et al., 2020]). The tsA201 cell line used for transient expression of hGATs was transfected with DNA constructs (8 μg per 10 cm plate) using 40 μL PolyFect transfection reagent according to the manufacturer’s protocol (Qiagen).
Briefly, cells were seeded in white 96-well plates (White Opaque Tissue Culture (TC) plated 96-well Microplate) pre-coated with PDL. Medium was removed on the following day and cells washed with 100 µL/well assay buffer (HBSS supplemented with 20 mM HEPES, 1 mM CaCl2 and 1 mM MgCl2, pH 7.4). […] The cells were washed 3 times with 100 µL/well ice-cold assay buffer, 150 µL/well MicroScint™20 was subsequently added before the plate was shaken for at least 1 h. The plate was counted in a Packard TopCounter microplate scintillation counter (PerkinElmer) for 3 min per well. […] Data presented is the pooled data of at least three independent experiments with three technical replicates if not stated otherwise in figure legends. Concentration–response curves were fitted by non-linear regression to the sigmoidal concentration-response model with GraphPad Prism (version 9.0.0, GraphPad Software, San Diego, CA, United States) as described ([Lie et al., 2020]).

Decrease in inhibitory activity compared to wildtype (BGT1 Q299L vs BGT1 wt) [times]	IC50 (read-out: IC50) [µM]	IC50 (read-out: pIC50 ± S.E.M. (converted)) [µM]	Structure (SMILES)
32	48	–	N[C@@]12CC[C@H](C(=O)O)[C@@H]1C2 [bicyclo-GABA, (1S,2S,5R)-5-aminobicyclo[3.1.0]hexane-2-carboxylic acid]
–	59	50.1	CN[C@@]12CC[C@H](C(=O)O)[C@@H]1C2 [compound 2]
